Patent US20260265331A1, “GLYCOSYLATED NEUROPEPTIDE DERIVATIVE INCLUDING NEUROPEPTIDE SEQUENCE AND SUGAR CHAIN, PHARMACEUTICAL COMPOSITION, INTRANASAL/NASAL DROP FORMULATION, AND USE OF GLYCOSYLATED NEUROPEPTIDE DERIVATIVE” (TOKYO UNIVERSITY OF SCIENCE FOUNDATION, priority 2022, published 2026)
Where no end group is shown, it is not given here. The star is where a group is joined. Cam = NC(=O)C*

Legend:
[1] = Quantification by GLP-2 ELISA of amount of migration to brain; assay type: in vivo, mice; details: 6.0 nmol/mouse intranasal, brain isolated 20 minutes after administration; FIG. 5
Experimental: Mice were intranasally administered with 16% DMSO or the GLP-2 derivatives (6.0 nmol/mouse). The brain was isolated 20 minutes after the administration, and homogenized with BioMasher II (Nippi, Tokyo, Japan). A sample was prepared by performing centrifugal separation by 1000×g (4° C.) for 15 minutes and collecting a supernatant. The amount of the GLP-2 derivative in the sample was quantified using a GLP-2 ELISA kit. Specifically, a cleaning process including filling each well of a measurement plate with a cleaning fluid (350 μL) and suctioning the cleaning fluid with a pipette was performed three times. […] Finally, an enzyme reaction stop solution (100 μL) was added and an absorbance at 490 nm was measured with ARVO (PerkinElmer Japan Co., Ltd., Kanagawa, Japan) to calculate the concentration of a GLP-2 derivative.
Mice were intranasally administered with the PAS-CPP-GLP-2 derivative prepared in Example 1 (C-terminus 11-sugar, no linker, C11), the PAS-CPP-GLP-2 derivative (N-terminus 11-sugar, no linker, N11), and the PAS-CPP-GLP-2 derivative glycosylated via a C6 alkylene group (N-terminus 11-sugar, with C6 linker, C6), respectively (6.0 nmol/mouse). […] The amount of the GLP-2 derivative in the sample was quantified using a GLP-2 ELISA kit. […]

[2] = Distribution in brain by immunostaining of frozen brain sections (Examples 6 and 7); assay type: in vivo, mice; details: Example 7, 3.0 nmol/mouse intranasal
Experimental: The brain was isolated 5 minutes after the administration and 20 minutes after the administration, respectively.
(§1) The brain isolated 5 minutes after the intranasal administration was subjected to infiltration fixation with 4% PFA at 4° C. overnight without performing perfusion fixation. The isolation of the brain 20 minutes after the intranasal administration was performed by the following process.
The mouse was fixed in a supine position under anesthesia with isoflurane, and the chest was incised. The tissue was fixed by perfusing with PBS, and subsequently with 4% PFA, from the left chamber of the heart throughout the whole body. The isolated brain was preserved in a 4% PFA solution. On the day following the isolation, the brain samples were substituted with 20% sucrose overnight (4° C.), and further with 30% sucrose overnight (4° C.). Thereafter, a frozen section with a thickness of 30 μm was prepared using a cryostat (CM3050S; Leica Microsystems).
The frozen brain section was mounted on a slide glass, and a circle was drawn around the section with a liquid blocker. A blocking buffer was added inside the circle and the section was subjected to blocking for 30 minutes at room temperature. Thereafter, the section was added with a first antibody solution including a GLP-2 polyclonal antibody, diluted by 200 times with a blocking solution, and subjected to incubation for 1 hour at room temperature. After rinsing three times with 1×PBS, the section was added with a second antibody solution including Alexa Fluor (trademark) 568 Goat Anti-Mouse IgG H&L, diluted by 500 times with a BSA/PBS solution, and subjected to incubation for 1 hour at room temperature. After rinsing three times with 1×PBS, the section was mounted with ProLong (trademark) Diamond Antifade Mountant. After confirming the solidification of the mountant, the section was subjected to fluorescent observation and imaging with a confocal laser microscope (TCS SP8; Leica) and a software (Leica Application Suite X Software; Leica).
Mice were intranasally administered with 16% DMSO or the GLP-2 derivatives (3.0 nmol/mouse), and the brain was isolated 5 minutes, 10 minutes, 20 minutes and 60 minutes after the administration.
as §1, with “isolated 5 minutes or 10 minutes after” for “isolated 5 minutes after”, “20 minutes or 60 minutes after the” for “20 minutes after the”
Sections of the olfactory bulb (OB) including olfactory nerves, pons/principal sensory nucleus of trigeminal nerve (Pr5), hippocampus (HIP) and dorsomedial nucleus of the hypothalamus (DMH) were prepared by referring to the Nissil staining images and the brain map (Paxinos and Franklin, 2003).
The frozen brain section was mounted on a slide glass, and a circle was drawn around the section with a liquid blocker. A blocking buffer was added inside the circle and the section was subjected to blocking for 30 minutes at room temperature. Thereafter, the section was added with a first antibody solution including a GLP-2 polyclonal antibody, diluted by 200 times with a blocking solution, and subjected to incubation for 1 hour at room temperature. […]

FFLIPKGRRRRRRRRGGHADGSFSDEMNTILDNLAARDFINWLIQTKITDC(Cam)-OH [PAS-CPP-GLP-2 derivative (no sugar)]
amount of GLP-2 derivative in brain (ELISA) [1]: below the detection limit
fluorescence at OB and Pr5 ([2]; 5 minutes, FIG. 7A): a significant degree of fluorescence was observed
fluorescence at HIP and DMH ([2]; 20 minutes, FIG. 7B): intense fluorescence was observed
fluorescence at OB ([2]; 20 minutes, FIG. 7B): a significant degree of fluorescence was observed at OB
fluorescence intensity at OB or Pr5 relative to 5 minutes ([2]; 20 minutes, FIG. 7B): weaker than the fluorescence observed 5 minutes after the administration
fluorescence at HIP and DMH ([2]; 60 minutes, FIG. 7C): fluorescence was not observed
